Reference: article PMC6796870, “A two-step lineage reprogramming strategy to generate functionally competent human hepatocytes from fibroblasts” (Cell Research, 2019)
Where a name gives a salt, the structure may show the parent alone. Read-outs that look alike come from different tables or passages of the source.

Experiments:
[1] = Table S9; ref 1,2 (Chen, M. et al. 2011); cited from earlier work
[2] = test system: hiHeps
[3] = test system: HepG2 cells
[4] = test system: hiHeps; experiment: Toxicity assay (TC50, 24 h, minimum of four viability parameters) in hiHeps; details: concentration giving 50% reduction of cell viability, values rounded for ease of use
[5] = test system: HBV; experiment: HBV infection of hiHeps, antiviral drug response; format: cell-based, hepatitis B virus; details: HBV-infected hiHeps; for HBV-DNA / HBV-RNA / HBV-proteins: 36 days, LAM 1 μM, ETV 0.5 μM during and after infection
[6] = test system: IFN-stimulated genes; experiment: Expression of IFN-stimulated genes in hiHeps; format: cell-based, human; details: IFN-α treatment
[7] = test system: hiHeps; details: human
[8] = test system: hiHeps; format: cell-based, human
Description: The correlation between groups was evaluated by the Pearson correlation coefficient (r). b Time- and dose-dependent chronic toxicity of troglitazone in hiHeps. Mitochondrial activities were normalized to DMSO-treated cultures at corresponding day. n = 6. c Fluorescence evaluation of the pathological effects of DILI in hiHeps. Steatosis (up) and phospholipidosis (down) were evaluated in hiHeps after exposure to steatosis-causing compounds and phospholipidosis-causing compounds, respectively. Rifampin (non-steatosis/phospholipidosis-causing drug) or DMSO treatment were set as controls. For all compounds, images were captured at the concentration of 80% TC50. For all measurements, ‘n’ represents the number of biological replicates. The scale bars represent 50 μm. Data are presented as mean ± SEM

Compound: CCN(CC)CCNC(=O)c1c(C)[nH]c(/C=C2\C(=O)Nc3ccc(F)cc32)c1C [Sunitinib]
- Label [1]: DILI concern by FDA

Compound: CC(C)C(=O)Nc1ccc([N+](=O)[O-])c(C(F)(F)F)c1 [flutamide]
- Toxicity after treatment with CYP3A4 inducer (rifampin) [2]: increased
- DDI effects on toxicity (rifampin, rifampin + ketoconazole) [3]: not detected

Compound: CO[C@H]1/C=C/O[C@@]2(C)Oc3c(C)c(O)c4c(O)c(c(/C=N/N5CCN(C)CC5)c(O)c4c3C2=O)NC(=O)/C(C)=C\C=C\[C@H](C)[C@H](O)[C@@H](C)[C@@H](O)[C@@H](C)[C@H](OC(C)=O)[C@@H]1C [rifampin]
- TC50 [4]: ~100 µM

Compound: interferon-alpha
- All major HBV markers (HBV-DNA, HBV-RNA, HBV-proteins) ([5]; 1000 U/mL after infection): inhibitory effect
- Expression of IFN-stimulated genes [6]: upregulation

Compound: Nc1ccn([C@@H]2CS[C@H](CO)O2)c(=O)n1 [lamivudine]
- HBV-DNA [5]: greatly inhibited
- HBV-RNA [5]: moderate effect
- HBV-proteins [5]: moderate effect

Compound: CN(C)CCCN1c2ccccc2Sc2ccc(Cl)cc21 [chlorpromazine]
- TC50 [4]: ≈ 25 μM

Compound: CC(=O)O[C@@]12CO[C@@H]1C[C@H](O)[C@@]1(C)C(=O)[C@H](O)C3=C(C)[C@@H](OC(=O)[C@H](O)[C@@H](NC(=O)OC(C)(C)C)c4ccccc4)C[C@@](O)([C@@H](OC(=O)c4ccccc4)[C@H]21)C3(C)C [Docetaxel]
- Label [1]: DILI concern by FDA

Compound: C=C1[C@H](CO)[C@@H](O)C[C@@H]1n1cnc2c(=O)[nH]c(N)nc21 [entecavir]
- HBV-DNA [5]: greatly inhibited
- HBV-RNA [5]: moderate effect
- HBV-proteins [5]: moderate effect

Compound: aflatoxin B1
- Toxicity after rifampin plus CYP3A4 inhibitor (ketoconazole) [2]: rescued
- Toxicity after treatment with CYP3A4 inducer (rifampin) [2]: increased
- DDI effects on toxicity (rifampin, rifampin + ketoconazole) [3]: not detected

Compound: CCCCc1oc2ccccc2c1C(=O)c1cc(I)c(OCCN(CC)CC)c(I)c1 [amiodarone]
- TC50 [4]: ~30 µM

Compound: CN(C)[C@@H]1C(O)=C(C(N)=O)C(=O)[C@@]2(O)C(O)=C3C(=O)c4c(O)cccc4[C@@](C)(O)[C@H]3C[C@@H]12 [tetracycline hydrochloride]
- TC50 [7]: ~400 µM

Compound: Cc1c(C)c2c(c(C)c1O)CCC(C)(COc1ccc(CC3SC(=O)NC3=O)cc1)O2 (centres unmarked) [troglitazone]
- Chronic toxicity [8]: extensive cell death
